Two compounds from patent publication US20070248997A1, “METHOD OF USING ONE-D[…] MULTI-D[…] MAGNETIC RESONANCE TO IDENTIFY COMPOUNDS THAT INTERACT WITH TARGET BIOMOLECULES” (Smithkline Beecham Corporation, priority 1999, published 2007) can be followed below.

This assay concerns the target Ni^2+ form of Peptide Deformylase (S. Aureus) (Staphylococcus aureus, UniProt P68826). The assay is described as follows: Deformylation of For-Met-Ala-Ser-OH by Ni-PDF monitored by 1H NMR over incubation times. In kind it is biochemical. To be noted: for interaction constant α between I1 and I2: 0.4 mM 8-hydroxyquinoline (I1) + 0.15 mM N-Nitro-N′-(N-phenylamino)guanidine (I2); for interaction constant α between I1 and I2 / Ki: 2.5 mM substrate, 1 uM enzyme, assuming a KM of 2.5 mM, FIG. 4; for Ki: from slopes of formate buildup, read-out: KEI (constant of inhibition).

Chain of Ni^2+ form of Peptide Deformylase (S. Aureus) (P68826 whole entry): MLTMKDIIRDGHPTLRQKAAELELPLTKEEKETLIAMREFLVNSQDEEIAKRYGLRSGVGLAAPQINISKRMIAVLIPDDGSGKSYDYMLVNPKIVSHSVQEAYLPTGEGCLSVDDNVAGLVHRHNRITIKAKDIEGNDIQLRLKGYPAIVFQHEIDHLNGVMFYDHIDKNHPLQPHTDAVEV
Method: FIG. 1 depicts the deformylation of For-Met-Ala-Ser-OH catalyzed by the Ni^2+ form of Peptide Deformylase (S. Aureus) (herein also referred to as “PDF”) over a range of incubation times, as monitored by 1H nuclear magnetic resonance spectroscopy.
FIG. 4 depicts the deformylation of For-Met-Ala-Ser-OH catalyzed by the Ni^2+ form of Peptide Deformylase (S.Aureus) over a range of incubation times, as monitored by 1H nuclear magnetic resonance spectroscopy of the buildup of the formate (For) moiety. Four slopes are illustrated in this figure, the first one (∘) is a “control” experiment using 2.5 mM of substrate (For-Met-Ala-Ser-OH) and 1 uM of enzyme. […] The third slope (∇) contains 0.15 mM of N-Nitro-N′-(N-phenylamino)guanidine (I2) in the presence of 2.5 mM of substrate and 1 uM of enzyme. Finally the fourth slope (⋄) contains both I1 and I2 at 0.4 mM and 0.15 mM, respectively, in the presence of 2.5 mM of substrate and 1 uM of enzyme. Calculating the four slopes and using the steady-state rate equations for this system, it is straightforward to calculate the KEI1, KEI2, and α value.

`Oc1cccc2cccnc12` [8-hydroxyquinoline]: the “interaction constant α between I1 and I2” value came out at 0.72; the Ki was determined as 335 µM. Under “8-hydroxyquinoline added to substrate + Ni-PDF mixture, FIG. 1”, the “deformylation of For-Met-Ala-Ser-OH (rate at which product resonance peak increases)” value was “slightly inhibited”.

On to `N=C(NNc1ccccc1)N[N+](=O)[O-]` [N-Nitro-N′-(N-phenylamino)guanidine], for which the “interaction constant α between I1 and I2” value was found to be 0.72; the Ki was determined as 151 µM.
